# Test results taken from BindingDB's records for doi:10.1021/ml200206z (2011).
# Target: T1, 5-hydroxytryptamine receptor 2C (Homo sapiens, UniProt P28335)
# T1 sequence (P28335 whole entry): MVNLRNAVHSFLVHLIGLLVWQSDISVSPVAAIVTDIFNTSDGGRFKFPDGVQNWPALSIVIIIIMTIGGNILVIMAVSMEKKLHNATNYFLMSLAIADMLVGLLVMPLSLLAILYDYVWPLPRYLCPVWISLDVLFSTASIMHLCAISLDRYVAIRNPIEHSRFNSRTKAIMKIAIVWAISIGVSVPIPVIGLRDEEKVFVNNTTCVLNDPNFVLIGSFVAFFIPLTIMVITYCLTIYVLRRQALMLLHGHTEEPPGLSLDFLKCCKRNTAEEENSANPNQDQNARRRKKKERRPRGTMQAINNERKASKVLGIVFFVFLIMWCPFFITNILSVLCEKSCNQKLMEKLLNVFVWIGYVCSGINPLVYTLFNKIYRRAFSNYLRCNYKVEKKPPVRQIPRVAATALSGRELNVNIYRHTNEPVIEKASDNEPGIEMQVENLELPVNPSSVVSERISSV
# Assay: Agonist activity at human 5HT2C receptor expressed in HEK293 cells assessed as calcium flux measured every sec for 3 mins by FLIPR assay
compound,measurement,value
NC[C@H]1C[C@@H]1c1ccccc1OCC1CC1,EC50,120 nM
